The values that follow come from patent publication US11458138B2 (Novartis AG, priority 2017, dated 2022).

Test [1] relates to YAP nuclear translocation in HaCaT cells. The test can be described thus: YAP Translocation Assay (HaCaT Cells). It counts as cell-based, human. Conditions: Homo sapiens, 24 hours. The method, boiled down: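 HaCaT cells (20,000/well) in DMEM + 10% FBS were plated overnight at 37° C, then exposed to compound for 24 h at 37° C. Cells were fixed with PFA, permeabilized with 0.1% Triton/1.5% BSA and imaged by high-content imaging.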

Test [2] concerns the target Human LATS2 kinase domain protein (Homo sapiens (Human), UniProt Q9NRM7). The test can be described thus: LATS2 Biochemical Caliper Assay (Compound Examples 1-290). To be noted: 400 micromolar ATP. The protocol: Human LATS2 kinase domain protein was purchased from Carnabio (catalogue number 01-124), which harbors the catalytic domain of amino acids 553-1088, and was co-purified with human His-tagged MOBKL1A (NP_775-739). 5 microlitre of enzyme buffer, 100 nL of compounds and 5 microlitre of localising aid buffer were added into 384-well plates. […] The plates were incubated at 25° C. for 3 hours. 40 microlitre of stop buffer with 25 mM EDTA (NanoSyn) was added to each well to terminate the reaction. Localising aids and products were separated electrophoretically using the microfluidic-based Caliper Labchip 3000 Drug Discovery System (Caliper Life Sciences). Plates were read using blue laser excitation and green fluorescence detection and quantified by fluorescence intensity.

The subject of test [3] is Phospho-YAP (Ser127) in JHH-5 cells. The test can be described thus: pYAP HTRF Assay (JHH-5 cells). It counts as cell-based. Conditions: 2 hours. The method, boiled down:
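JHH-5 cells (24000/well) cultured 24 h at 37 °C in William's E with 10% FBS, then exposed to compounds for 2 h at 37 °C. After lysis, pYAP d2/cryptate antibodies incubated 18 h at room temperature; HTRF ratio 665/620 nm ×10000.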
(In general: Time-resolved FRET reads energy transfer from a long-lived donor to a nearby acceptor.)

The test system of test [4] is Phospho-YAP (SER127) in HaCaT cells. The test can be described thus: pYAP HTRF Assay (HaCaT Cells). It counts as cell-based, human. Conditions: Homo sapiens, 2 hours. The method, boiled down:
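HaCaT cells at 5500 cells/well were cultured 48 hours at 37° C, then treated with compound for 2 hours. Phospho-YAP (Ser127) was detected by HTRF after an overnight (20 hrs) room-temperature incubation, read as the 665 nm/620 nm ratio.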

Another test has as its target LATS1 (Homo sapiens (Human), UniProt O95835). The test is described as follows: LATS1 biochemical assay (Table 1A, Compound Examples 1-290; method in the earlier part).
The subject of test [5] is human corneal endothelial cells (CECs). The test is described as follows: Human corneal endothelial cell population expansion: endothelial cell density in vitro. In kind it is cell-based. Conditions: 10 micromolar compound, X-VIVO15 medium, 10 days. The protocol:
(§1) Cells were cultured at 37° C. in 5% CO2.
(§2) For each compound, two sets of cultures were generated. A first set of cultures was fixed in 4% PFA for 20 minutes at room temperature after cells isolated from the cornea had attached to the cell culture dish (typically 24 h after cell plating). A second set of cultures was fixed in 4% PFA for 20 minutes at room temperature 10 days after the first one.
(§3) To measure cell density in all fixed cultures, the number of nuclei stained with Sytox Orange (ThermoFisher) were counted per surface area as follows: fixed cell cultures fixed were permeabilized in a solution of 0.3% Triton X-100 (Sigma-Aldrich). Cells were then labeled in a solution of 0.5 micromolar of Sytox Orange in PBS for 5 minutes at room temperature. Nuclei were counted under a Zeiss epifluorescence microscope. The expansion factor was then determined by calculating the ratio of the expanded population of cells to population of seeded cells.

Test [6] shares this test system. The test is described as follows: Human corneal endothelial cell population expansion: fold cell expansion. It counts as cell-based. Conditions: 10 micromolar compound, X-VIVO15 medium, 10 days, ratio of expanded to seeded cells. The protocol:
as §1, §2, §3

Test [7] relates to human limbal stem cells (LSCs). The test can be described thus: Human limbal stem cell population expansion: percentage of p63alpha-positive cells. To be noted: 10 micromolar, XVIVO15 medium. In kind it is cell-based. The protocol:
as §1
(§4) For each compound, two sets of cultures were generated. A first set of cultures was fixed in 4% PFA for 20 minutes at room temperature after cells isolated from the cornea had attached to the cell culture dish (typically 24 h after cell plating). A second set of cultures was fixed in 4% PFA for 20 minutes at room temperature after being cultured for two passages. Cells were passaged when they reached 90-100% confluence.
In order to observe that the expanded cell population expressed p63alpha, this was measured by immunohistochemistry as follows. The fixed cell cultures were permeabilized and blocked in a blocking solution of 0.3% Triton X-100 (Sigma-Aldrich) and 3% donkey serum in PBS for 30 minutes. Cells were then labeled with primary antibody in the blocking solution for 12 hours at 4° C. Primary antibody used was p63alpha from Cell Signalling. Samples were washed in PBS three times and donkey-raised secondary antibody Alexa Fluor 488 (Molecular Probes) at 1:500 dilution were applied for 30 minutes at room temperature. Cell nuclei were then labeled in a solution of 0.5 micromolar of Sytox Orange (ThermoFisher) in PBS for 5 minutes at room temperature.
To evaluate the percentage of p63alpha-positive cells, the number of cells labeled by the anti-p63alpha antibody was counted and the total number of cells was determined by counting the number of nuclei stained by Sytox Orange. The proportion of p63alpha-positive cells was then determined by calculating the percentage of Sytox-orange-positive nuclei that also expressed p63alpha.

For test [8], the system named is human limbal stem cells (LSCs). The test can be described thus: Human limbal stem cell population expansion: expansion factor. In kind it is cell-based. To be noted: 10 micromolar, XVIVO15 medium, two passages, ratio of expanded to seeded cells. The protocol:
as §1, §4
To evaluate cell expansion ratios, nuclei were counted using a Zeiss LSM 880 confocal microscope. The expansion factor was then determined by calculating the ratio of the expanded population of cells to population of seeded cells.

pEC50, pIC50: −log10 of the molar value. Bounds are passed on as bounds.

Sequence of Human LATS2 kinase domain protein (Q9NRM7 553-1088): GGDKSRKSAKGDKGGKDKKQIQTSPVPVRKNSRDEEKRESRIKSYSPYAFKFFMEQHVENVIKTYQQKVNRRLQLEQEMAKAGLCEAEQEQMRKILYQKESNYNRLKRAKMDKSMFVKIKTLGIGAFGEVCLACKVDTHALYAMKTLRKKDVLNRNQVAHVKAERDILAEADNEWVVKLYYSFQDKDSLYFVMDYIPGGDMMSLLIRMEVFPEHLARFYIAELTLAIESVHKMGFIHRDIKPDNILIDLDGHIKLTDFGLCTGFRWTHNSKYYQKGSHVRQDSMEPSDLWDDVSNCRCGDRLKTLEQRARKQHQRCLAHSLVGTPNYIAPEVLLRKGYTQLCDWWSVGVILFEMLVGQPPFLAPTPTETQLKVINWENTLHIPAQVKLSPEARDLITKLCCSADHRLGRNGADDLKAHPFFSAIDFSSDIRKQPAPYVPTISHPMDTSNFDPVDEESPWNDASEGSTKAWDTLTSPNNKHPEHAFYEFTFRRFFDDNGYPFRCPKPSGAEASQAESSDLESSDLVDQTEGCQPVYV
Sequence of Human LATS2 kinase domain protein (Q7L9L4 whole entry partner, the tested form may be a part): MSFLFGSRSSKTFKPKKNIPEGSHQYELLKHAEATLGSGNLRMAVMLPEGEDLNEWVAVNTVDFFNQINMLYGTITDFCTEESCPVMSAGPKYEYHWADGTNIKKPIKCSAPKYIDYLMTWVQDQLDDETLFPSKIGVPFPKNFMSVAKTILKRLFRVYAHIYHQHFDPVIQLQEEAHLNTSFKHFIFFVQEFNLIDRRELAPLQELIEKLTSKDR
Sequence of LATS1 (O95835 whole entry, looked up): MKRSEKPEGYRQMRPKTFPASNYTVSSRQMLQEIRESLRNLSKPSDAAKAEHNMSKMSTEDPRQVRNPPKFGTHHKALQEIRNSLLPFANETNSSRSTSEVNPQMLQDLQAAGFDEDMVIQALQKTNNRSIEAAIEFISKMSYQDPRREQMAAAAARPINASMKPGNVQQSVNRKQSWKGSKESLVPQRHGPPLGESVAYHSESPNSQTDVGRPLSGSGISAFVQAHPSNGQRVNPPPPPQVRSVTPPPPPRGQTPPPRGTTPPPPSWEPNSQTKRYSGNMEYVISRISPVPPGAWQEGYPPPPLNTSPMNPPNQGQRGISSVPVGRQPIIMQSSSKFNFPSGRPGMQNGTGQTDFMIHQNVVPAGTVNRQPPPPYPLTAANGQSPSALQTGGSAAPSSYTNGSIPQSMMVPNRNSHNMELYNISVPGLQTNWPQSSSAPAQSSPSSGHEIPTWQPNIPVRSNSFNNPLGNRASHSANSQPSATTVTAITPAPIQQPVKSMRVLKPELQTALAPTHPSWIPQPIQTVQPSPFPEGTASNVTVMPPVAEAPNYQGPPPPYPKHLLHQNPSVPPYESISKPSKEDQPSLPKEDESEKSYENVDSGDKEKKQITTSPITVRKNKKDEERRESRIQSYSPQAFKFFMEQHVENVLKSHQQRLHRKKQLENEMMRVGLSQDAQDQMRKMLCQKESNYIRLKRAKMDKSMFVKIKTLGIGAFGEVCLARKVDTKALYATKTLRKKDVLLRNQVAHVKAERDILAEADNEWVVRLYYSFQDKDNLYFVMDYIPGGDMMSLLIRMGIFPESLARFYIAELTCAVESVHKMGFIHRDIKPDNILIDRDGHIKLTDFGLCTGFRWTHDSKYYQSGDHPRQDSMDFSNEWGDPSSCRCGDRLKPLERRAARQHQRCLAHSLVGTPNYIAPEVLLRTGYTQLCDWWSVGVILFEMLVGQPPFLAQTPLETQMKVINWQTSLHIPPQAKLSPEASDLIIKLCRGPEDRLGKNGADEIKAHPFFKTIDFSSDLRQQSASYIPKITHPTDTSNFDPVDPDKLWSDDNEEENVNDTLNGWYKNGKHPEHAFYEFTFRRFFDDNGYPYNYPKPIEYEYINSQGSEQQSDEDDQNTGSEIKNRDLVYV
Sequence of LATS1 (Q7L9L4 whole entry partner, looked up): as the sequence (Q7L9L4 whole entry partner, the tested form may be a part) above

One may read the pEC50 as the EC50 on a negative log10 scale, so that one unit is a factor of ten. Lower therefore signals a large EC50. By pIC50 is commonly meant the negative decadic logarithm of the IC50, by convention in mol/L. The molecule `CC(Nc1nc(-c2ccncc2)nc2cnccc12)C(F)(F)F` (stereo not drawn) [Example 4, 2-(pyridin-4-yl)-N-(1,1,1-trifluoropropan-2-yl)pyrido[3,4-d]pyrimidin-4-amine] had a pEC50 in [1] of 5.60. Further, the pIC50 in test [2] is 9.00; in test [3], under 5.00; in test [4], 5.94; against LATS1 it was 9.00.
`CC(C)N(C)c1nc(-c2ccncc2)nc2cnccc12` [Example 5, N-methyl-N-(propan-2-yl)-2-(pyridin-4-yl)pyrido[3,4-d]pyrimidin-4-amine]: the “Endothelial Cell density in vitro” value in test [5] came out at 3911 cells/mm^2. For the same molecule, the pEC50 in test [1] is 5.61. For the same molecule, the pIC50 was 5.64 in test [3], 5.66 in [4] and 8.70 on LATS1. Besides, in test [6], the “Expansion factor (Fold Cell expansion)” value came to 408.
In [1], `CC(C)(COCCO)Nc1nc(-c2ccncc2)nc2cnccc12` [Example 11, 2-(2-methyl-2-{[2-(pyridin-4-yl)pyrido[3,4-d]pyrimidin-4-yl]amino}propoxy)ethan-1-ol] showed a pEC50 of 5.84. The pIC50 is 7.92 in [2], 6.19 in [4] and 8.52 against LATS1.
In the case of `CC1CCCC1Nc1nc(-c2ccncc2)nc2cnccc12` (stereo not drawn) [Example 17, N-(2-methylcyclopentyl)-2-(pyridin-4-yl)pyrido[3,4-d]pyrimidin-4-amine], the “Percentage of p63a-positive cells” value in test [7] turned out to be 86%. For the same molecule, the “Endothelial Cell density in vitro” value in test [5] came to 1628 cells/mm^2. For the same molecule, in [1], the negative logarithm of the EC50 (pEC50) was 5.58. For the same molecule, the “Expansion factor (Fold Cell expansion)” value in [6] is recorded as 187. Besides, the pIC50 is 6.22 in [4] and 8.30 at LATS1. Also, the Expansion factor in [8] came to 976.
For the molecule `O[C@H]1CCC[C@@H]1Nc1nc(-c2ccncc2)nc2cnccc12` [Example 33, (1S,2S)-2-{[2-(pyridin-4-yl)pyrido[3,4-d]pyrimidin-4-yl]amino}cyclopentan-1-ol], in [7], the “Percentage of p63a-positive cells” value amounted to 6%. The “Endothelial Cell density in vitro” value in [5] is listed as 25 cells/mm^2. Also, in test [1], the pEC50 was under 4.70. Also, the “Expansion factor (Fold Cell expansion)” value in [6] amounted to 12. Further, the pIC50 in test [4] was under 4.70; against LATS1 it was 7.15. Further, in test [8], the Expansion factor is on record as 39.
`CC(C)(C)Nc1nc(-c2ccncc2)nc2cnccc12` [Example 59, N-tert-butyl-2-(pyridin-4-yl)pyrido[3,4-d]pyrimidin-4-amine] had a pEC50 in test [1] of 6.47. Moreover, the negative logarithm of the IC50 (pIC50) in test [2] is 8.40; in [3] it was 5.96; in test [4], 7.72; against LATS1, 9.00.
Take `OCC1(Nc2nc(-c3ccncc3)nc3cnccc23)CCC1` [Example 101, (1-{[2-(pyridin-4-yl)pyrido[3,4-d]pyrimidin-4-yl]amino}cyclobutyl)methanol]: in [1], the pEC50 is under 4.70. The pIC50 was 7.52 in [2], 5.48 in test [3], 5.27 in test [4] and 8.30 on LATS1.
Turning to `FC(F)(F)C1(Nc2nc(-c3ccncc3)cc3cnccc23)CC1` [Example 288, 3-(pyridin-4-yl)-N-(1-(trifluoromethyl)cyclopropyl)-2,6-naphthyridin-1-amine], the “Percentage of p63a-positive cells” value in test [7] is 95%. In addition, the “Endothelial Cell density in vitro” value in test [5] worked out at 2779 cells/mm^2. In addition, in test [1], the pEC50 is 5.13. Moreover, the pIC50 in test [2] was 7.47; in [4], 4.74; against LATS1 it was 8.40. Besides, in test [6], the “Expansion factor (Fold Cell expansion)” value was determined as 302. For the same molecule, the Expansion factor in test [8] is 1241.
In the case of `CC1(Nc2cc(-c3ccncc3)cc3cnccc23)CC1` [Example 289, N-(1-methylcyclopropyl)-7-(pyridin-4-yl)isoquinolin-5-amine], the “Percentage of p63a-positive cells” value in [7] was determined as 80%. Besides, in test [5], the “Endothelial Cell density in vitro” value came out at 1421 cells/mm^2. In test [1], this molecule gave a pEC50 of 5.19. For the same molecule, in [6], the “Expansion factor (Fold Cell expansion)” value is listed as 84. The pIC50 was 4.47 in test [4] and 8.40 on LATS1. Moreover, the Expansion factor in [8] is reported as 681.
